Results as given in patent US20250120981A1, “MRTX1133 PHARMACEUTICAL COMPOSITIONS” (MIRATI THERAPEUTICS, INC., priority 2023, published 2025).
Like-named read-outs stand apart in the source and are kept apart here.

Test: Pharmacokinetics in humans, MRTX1133 formulation, oral, single and multiple doses
Type: in vivo
Details: human, plasma, po; for AUC0-inf: read-out: AUC0-inf, Geo Mean
Description: The pharmacokinetics [PK] of the MRTX1133 formulation after oral administration has been evaluated in 25 subjects across 3 escalating dose frequencies under fasting conditions (200 mg twice daily [BID], 400 mg BID, and 800 mg BID), as well as evaluation of 400 mg BID when administered with a low-fat meal (i.e., under fed conditions). The mean (+standard deviation) single-dose and multiple-dose pharmacokinetic profiles of the evaluated doses are presented in FIG. 9 and FIG. 10, respectively. Individual single- and multiple-dose PK profiles can be found in FIG. 11. For all figures, the X-axis represents nominal time of sample collection (hours [h]) and the Y-axis represents plasma concentration (ng/mL). Table 10 lists PK data following the oral administration of a single dose and multiple doses of MRTX1133 formulation by dose level and subject.

[1] = 400 mg, single oral dose of 400 mg with a low-fat meal, mean of subjects, read-out: Plasma concentration, Mean
[2] = 400 mg, single oral dose of 400 mg with a low-fat meal, individual subjects, read-out: Plasma concentration
[3] = 400 mg, single oral dose of 400 mg, fasted, mean of subjects, read-out: Plasma concentration, Mean
[4] = 400 mg, single oral dose of 400 mg, fasted, individual subjects, read-out: Plasma concentration
[5] = 800 mg, multiple oral doses of 800 mg BID, fasted, Mean of subjects, read-out: Plasma concentration

With `C#Cc1c(F)ccc2cc(O)cc(-c3ncc4c(N5C[C@H]6CC[C@@H](C5)N6)nc(OC[C@@]56CCCN5C[C@H](F)C6)nc4c3F)c12` [MRTX1133, 4-(4-((1R,5S)-3,8-diazabicyclo[3.2.1]octan-3-yl)-8-fluoro-2-(((2R,7aS)-2-fluorohexahydro-1Hpyrrolizin-7a-yl)methoxy)pyrido[4,3-d]pyrimidin-7-yl)-5-ethynyl-6-fluoronaphthalen-2-ol] as the compound, how does the concentration at 2 h [1] read?
The concentration at 2 h was 43.6 ng/mL.

What about the concentration at 3 h (400 mg, single oral dose of 400 mg with a low-fat meal, 3 h, mean of subjects) of the same compound?
Its concentration at 3 h is 43.7 ng/mL.

And the concentration at 4 h [1]?
The concentration at 4 h was 59.7 ng/mL.

And the concentration at 5 h (400 mg, single oral dose of 400 mg with a low-fat meal, 5 h, mean of subjects)?
The concentration at 5 h was 53.9 ng/mL.

What about the concentration at 6 h [1] of the same compound?
Its concentration at 6 h is 43.6 ng/mL.

What about the concentration at 8 h [1] of the same compound?
The concentration at 8 h was 20.4 ng/mL.

And the concentration at 12 h [1]?
The concentration at 12 h was 11.3 ng/mL.

What about the concentration at 24 h [2] of the same compound?
The concentration at 24 h was 7.59 ng/mL.

What about the concentration at 24 h [1] of the same compound?
Its concentration at 24 h is 7.59 ng/mL.

And the concentration at 48 h [2]?
The concentration at 48 h was 3.13 ng/mL.

And the concentration at 48 h [1]?
Its concentration at 48 h is 3.13 ng/mL.

And the concentration at 72 h [2]?
The concentration at 72 h was 2.13 ng/mL.

And the concentration at 72 h [1]?
Its concentration at 72 h is 2.13 ng/mL.

What about the concentration at 96 h [2] of the same compound?
The concentration at 96 h was 1.12 ng/mL.

What about the concentration at 96 h [1] of the same compound?
Its concentration at 96 h is 1.12 ng/mL.

And the AUC(0-t) (400 mg, single oral dose of 400 mg with a low-fat meal, geometric mean of subjects, read-out: AUC0-12, Geo Mean)?
The AUC(0-t) was 256 ng·h/mL.

What about the AUC0-inf (400 mg, single oral dose of 400 mg with a low-fat meal, geometric mean of subjects) of the same compound?
Its AUC0-inf is 300 ng·h/mL.

And the AUC(0-t) (400 mg, single oral dose of 400 mg with a low-fat meal, geometric mean of subjects, read-out: AUC0-last, Geo Mean)?
Its AUC(0-t) is 277 ng·h/mL.

What about the Cmax (400 mg, single oral dose of 400 mg with a low-fat meal, geometric mean of subjects, read-out: Cmax, Geo Mean) of the same compound?
Its Cmax is 66.6 ng/mL.

What about the half-life (400 mg, single oral dose of 400 mg with a low-fat meal, geometric mean of subjects, read-out: T1/2, Geo Mean (converted)) of the same compound?
Its half-life is 27.2 h.

What about the half-life (400 mg, single oral dose of 400 mg with a low-fat meal, individual subjects, read-out: T1/2 (converted)) of the same compound?
Its half-life is 27.2 h.

What about the Tmax (400 mg, single oral dose of 400 mg with a low-fat meal, median of subjects (footnote b), read-out: Tmax, Median) of the same compound?
The Tmax was 4 h.

What about the concentration at 0.5 h [3] of the same compound?
The concentration at 0.5 h was 42.7 ng/mL.

And the concentration at 1 h [3]?
Its concentration at 1 h is 52.2 ng/mL.

What about the concentration at 1.5 h [3] of the same compound?
The concentration at 1.5 h was 48.9 ng/mL.

What about the concentration at 2 h [3] of the same compound?
The concentration at 2 h was 83.3 ng/mL.

And the concentration at 4 h [3]?
The concentration at 4 h was 64.4 ng/mL.

And the concentration at 6 h [3]?
Its concentration at 6 h is 34.5 ng/mL.

And the concentration at 8 h [3]?
Its concentration at 8 h is 23 ng/mL.

And the concentration at 12 h [3]?
The concentration at 12 h was 11.9 ng/mL.

What about the concentration at 24 h [4] of the same compound?
The concentration at 24 h was 3.75 ng/mL.

What about the concentration at 24 h [3] of the same compound?
Its concentration at 24 h is 3.75 ng/mL.

And the concentration at 48 h [4]?
The concentration at 48 h was 1.46 ng/mL.

And the concentration at 48 h [3]?
Its concentration at 48 h is 1.46 ng/mL.

And the concentration at 72 h [4]?
Its concentration at 72 h is 0.872 ng/mL.

And the concentration at 72 h [3]?
The concentration at 72 h was 0.872 ng/mL.

And the concentration at 96 h [4]?
The concentration at 96 h was 0.538 ng/mL.

And the concentration at 96 h [3]?
The concentration at 96 h was 0.538 ng/mL.

What about the AUC(0-t) (400 mg, single oral dose of 400 mg, fasted, geometric mean of subjects, read-out: AUC0-12, Geo Mean) of the same compound?
The AUC(0-t) was 263 ng·h/mL.

And the AUC0-inf (400 mg, single oral dose of 400 mg, fasted, geometric mean of subjects)?
The AUC0-inf was 304 ng·h/mL.

And the AUC(0-t) (400 mg, single oral dose of 400 mg, fasted, geometric mean of subjects, read-out: AUC0-last, Geo Mean)?
Its AUC(0-t) is 278 ng·h/mL.

What about the Cmax (400 mg, single oral dose of 400 mg, fasted, geometric mean of subjects, read-out: Cmax, Geo Mean) of the same compound?
Its Cmax is 86.2 ng/mL.

What about the half-life (400 mg, single oral dose of 400 mg, fasted, geometric mean of subjects, read-out: T1/2, Geo Mean (converted)) of the same compound?
The half-life was 33.3 h.

And the half-life (400 mg, single oral dose of 400 mg, fasted, individual subjects, read-out: T1/2 (converted))?
Its half-life is 33.3 h.

What about the Tmax (400 mg, single oral dose of 400 mg, fasted, median of subjects (footnote b), read-out: Tmax, Median) of the same compound?
Its Tmax is 2 h.

And the concentration at 0 h (800 mg, multiple oral doses of 800 mg BID, fasted, 0 h, Mean of subjects, read-out: Plasma concentration)?
Its concentration at 0 h is 20.6 ng/mL.

And the concentration at 0.5 h [5]?
Its concentration at 0.5 h is 97.2 ng/mL.

And the concentration at 1 h [5]?
The concentration at 1 h was 137 ng/mL.

And the concentration at 1.5 h [5]?
The concentration at 1.5 h was 107 ng/mL.

And the concentration at 2 h [5]?
The concentration at 2 h was 122 ng/mL.

And the concentration at 4 h [5]?
Its concentration at 4 h is 138 ng/mL.

What about the concentration at 6 h [5] of the same compound?
Its concentration at 6 h is 107 ng/mL.

What about the concentration at 8 h [5] of the same compound?
The concentration at 8 h was 56.2 ng/mL.

And the concentration at 12 h [5]?
The concentration at 12 h was 14.7 ng/mL.

And the AUC(0-t) (800 mg, multiple oral doses of 800 mg BID, fasted, Geo Mean of subjects, read-out: AUC0-12)?
The AUC(0-t) was 347 ng·h/mL.

What about the AUC(0-t) (800 mg, multiple oral doses of 800 mg BID, fasted, Geo Mean of subjects, read-out: AUC0-last) of the same compound?
Its AUC(0-t) is 477 ng·h/mL.

What about the Cmax (800 mg, multiple oral doses of 800 mg BID, fasted, Geo Mean of subjects, read-out: Cmax) of the same compound?
The Cmax was 99.5 ng/mL.

What about the Tmax (800 mg, multiple oral doses of 800 mg BID, fasted, Median of subjects, read-out: Tmax) of the same compound?
The Tmax was 2 h.
